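1) Cells in 96-well plates. 2) Compound, 48 h, 5 concentrations. 3) Linear interpolation between surrounding doses. 4) Unreached endpoint = highest concentration. GI50 is the concentration that inhibits growth by half. The concentration for full growth arrest is given as TGI.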
Columns and labels:
Test in all cases: inhibition of tumour cell growth, NCI panel, 48 h
786-0 renal = tested on: 786-0 renal
A498 renal = tested on: A498 renal
A549 NSCLC = tested on: A549 NSCLC
ACHN renal = tested on: ACHN renal
BT-549 breast = tested on: BT-549 breast
CAKI-1 renal = tested on: CAKI-1 renal
CCRF-CEM leukemia = tested on: CCRF-CEM leukemia
COLO 205 colon = tested on: COLO 205 colon
DU-145 prostate = tested on: DU-145 prostate
EKVX NSCLC = tested on: EKVX NSCLC
HCC-2998 colon = tested on: HCC-2998 colon
HCT-116 colon = tested on: HCT-116 colon
HCT-15 colon = tested on: HCT-15 colon
HL-60(TB) leukemia = tested on: HL-60(TB) leukemia
HOP-62 NSCLC = tested on: HOP-62 NSCLC
HOP-92 NSCLC = tested on: HOP-92 NSCLC
HS 578T breast = tested on: HS 578T breast
HT29 colon = tested on: HT29 colon
IGROV1 ovarian = tested on: IGROV1 ovarian
K-562 leukemia = tested on: K-562 leukemia
KM12 colon = tested on: KM12 colon
LOX IMVI melanoma = tested on: LOX IMVI melanoma
M14 melanoma = tested on: M14 melanoma
MALME-3M melanoma = tested on: MALME-3M melanoma
MCF7 breast = tested on: MCF7 breast
MDA-MB-231 breast = tested on: MDA-MB-231 breast
MDA-MB-435 = tested on: MDA-MB-435
MDA-MB-468 breast = tested on: MDA-MB-468 breast
MOLT-4 leukemia = tested on: MOLT-4 leukemia
NCI-H226 lung = tested on: NCI-H226 lung
NCI-H23 lung = tested on: NCI-H23 lung
NCI-H460 lung = tested on: NCI-H460 lung
NCI-H522 lung = tested on: NCI-H522 lung
NCI/ADR-RES ovarian = tested on: NCI/ADR-RES ovarian
OVCAR-3 ovarian = tested on: OVCAR-3 ovarian
OVCAR-4 ovarian = tested on: OVCAR-4 ovarian
OVCAR-5 ovarian = tested on: OVCAR-5 ovarian
OVCAR-8 ovarian = tested on: OVCAR-8 ovarian
PC-3 prostate = tested on: PC-3 prostate
RPMI-8226 leukemia = tested on: RPMI-8226 leukemia
RXF 393 renal = tested on: RXF 393 renal
SF-268 CNS = tested on: SF-268 CNS
SF-295 CNS = tested on: SF-295 CNS
SF-539 CNS = tested on: SF-539 CNS
SK-MEL-2 melanoma = tested on: SK-MEL-2 melanoma
SK-MEL-28 melanoma = tested on: SK-MEL-28 melanoma
SK-MEL-5 melanoma = tested on: SK-MEL-5 melanoma
SK-OV-3 ovarian = tested on: SK-OV-3 ovarian
SN12C renal = tested on: SN12C renal
SNB-19 CNS = tested on: SNB-19 CNS
SNB-75 CNS = tested on: SNB-75 CNS
SR leukemia = tested on: SR leukemia
SW-620 colon = tested on: SW-620 colon
T-47D breast = tested on: T-47D breast
TK-10 renal = tested on: TK-10 renal
U251 CNS = tested on: U251 CNS
UACC-257 melanoma = tested on: UACC-257 melanoma
UACC-62 melanoma = tested on: UACC-62 melanoma
UO-31 renal = tested on: UO-31 renal

How did the GI50 (786-0 renal) turn out when `CN(C)CCOc1ccc(C(=O)C2[C@H](c3ccc(Cl)cc3)[C@@H](c3ccccc3)NC23C(=O)Nc2ccc(Cl)cc23)cc1` (stereo partly drawn) was run?
Its GI50 is 15 µM.

And the TGI (786-0 renal)?
The TGI was 29.2 µM.

What about the GI50 (A498 renal) of the same compound?
The GI50 was 14.6 µM.

And the TGI (A498 renal)?
Its TGI is 28.1 µM.

What about the GI50 (A549 NSCLC) of the same compound?
The GI50 was 14.3 µM.

And the TGI (A549 NSCLC)?
Its TGI is 28.9 µM.

And the GI50 (ACHN renal)?
The GI50 was 14.5 µM.

What about the TGI (ACHN renal) of the same compound?
Its TGI is 27.6 µM.

And the GI50 (BT-549 breast)?
Its GI50 is 14.4 µM.

What about the TGI (BT-549 breast) of the same compound?
Its TGI is 27.7 µM.

What about the GI50 (CAKI-1 renal) of the same compound?
The GI50 was 13.4 µM.

What about the TGI (CAKI-1 renal) of the same compound?
Its TGI is 26.3 µM.

What about the GI50 (CCRF-CEM leukemia) of the same compound?
The GI50 was 16.8 µM.

And the TGI (CCRF-CEM leukemia)?
The TGI was 34.8 µM.

What about the GI50 (COLO 205 colon) of the same compound?
The GI50 was 15.6 µM.

What about the TGI (COLO 205 colon) of the same compound?
The TGI was 29.3 µM.

And the GI50 (DU-145 prostate)?
The GI50 was 15.9 µM.

And the TGI (DU-145 prostate)?
Its TGI is 30.2 µM.

What about the GI50 (EKVX NSCLC) of the same compound?
The GI50 was 14.3 µM.

What about the TGI (EKVX NSCLC) of the same compound?
Its TGI is 28.1 µM.

What about the GI50 (HCC-2998 colon) of the same compound?
The GI50 was 13.4 µM.

And the TGI (HCC-2998 colon)?
The TGI was 26.9 µM.

What about the GI50 (HCT-116 colon) of the same compound?
The GI50 was 12.8 µM.

And the TGI (HCT-116 colon)?
The TGI was 26 µM.

What about the GI50 (HCT-15 colon) of the same compound?
The GI50 was 15.2 µM.

What about the TGI (HCT-15 colon) of the same compound?
The TGI was 28.8 µM.

And the GI50 (HL-60(TB) leukemia)?
Its GI50 is 11 µM.

And the TGI (HL-60(TB) leukemia)?
The TGI was 28.1 µM.

And the GI50 (HOP-62 NSCLC)?
The GI50 was 12.7 µM.

What about the TGI (HOP-62 NSCLC) of the same compound?
The TGI was 26 µM.

What about the GI50 (HOP-92 NSCLC) of the same compound?
Its GI50 is 8.92 µM.

What about the TGI (HOP-92 NSCLC) of the same compound?
Its TGI is 22.2 µM.

What about the GI50 (HS 578T breast) of the same compound?
The GI50 was 12.5 µM.

And the TGI (HS 578T breast)?
The TGI was 34.2 µM.

What about the GI50 (HT29 colon) of the same compound?
Its GI50 is 14.4 µM.

And the TGI (HT29 colon)?
The TGI was 28.1 µM.

What about the GI50 (IGROV1 ovarian) of the same compound?
The GI50 was 14.3 µM.

And the TGI (IGROV1 ovarian)?
Its TGI is 28.2 µM.

What about the GI50 (K-562 leukemia) of the same compound?
Its GI50 is 13 µM.

What about the TGI (K-562 leukemia) of the same compound?
The TGI was 34.2 µM.

And the GI50 (KM12 colon)?
Its GI50 is 13.6 µM.

And the TGI (KM12 colon)?
The TGI was 29 µM.

What about the GI50 (LOX IMVI melanoma) of the same compound?
Its GI50 is 13.5 µM.

And the TGI (LOX IMVI melanoma)?
The TGI was 26.8 µM.

What about the GI50 (M14 melanoma) of the same compound?
Its GI50 is 16 µM.

What about the TGI (M14 melanoma) of the same compound?
Its TGI is 29.8 µM.

And the GI50 (MALME-3M melanoma)?
Its GI50 is 14.7 µM.

What about the TGI (MALME-3M melanoma) of the same compound?
The TGI was 29.7 µM.

And the GI50 (MCF7 breast)?
The GI50 was 5.71 µM.

And the TGI (MCF7 breast)?
Its TGI is 18.8 µM.

What about the GI50 (MDA-MB-231 breast) of the same compound?
Its GI50 is 15.1 µM.

And the TGI (MDA-MB-231 breast)?
Its TGI is 28.7 µM.

And the GI50 (MDA-MB-435)?
Its GI50 is 14.5 µM.

And the TGI (MDA-MB-435)?
The TGI was 28.2 µM.

And the GI50 (MDA-MB-468 breast)?
The GI50 was 8.98 µM.

And the TGI (MDA-MB-468 breast)?
The TGI was 22.3 µM.

What about the GI50 (MOLT-4 leukemia) of the same compound?
The GI50 was 12.6 µM.

What about the TGI (MOLT-4 leukemia) of the same compound?
The TGI was 29.6 µM.

What about the GI50 (NCI-H226 lung) of the same compound?
Its GI50 is 15.3 µM.

And the TGI (NCI-H226 lung)?
Its TGI is 33.1 µM.

What about the GI50 (NCI-H23 lung) of the same compound?
Its GI50 is 16.4 µM.

What about the TGI (NCI-H23 lung) of the same compound?
Its TGI is 31 µM.

What about the GI50 (NCI-H460 lung) of the same compound?
Its GI50 is 13 µM.

And the TGI (NCI-H460 lung)?
Its TGI is 26.3 µM.

What about the GI50 (NCI-H522 lung) of the same compound?
The GI50 was 14.8 µM.

And the TGI (NCI-H522 lung)?
The TGI was 29.1 µM.

And the GI50 (NCI/ADR-RES ovarian)?
The GI50 was 16.6 µM.

What about the TGI (NCI/ADR-RES ovarian) of the same compound?
Its TGI is 31.4 µM.

And the GI50 (OVCAR-3 ovarian)?
The GI50 was 14.2 µM.

And the TGI (OVCAR-3 ovarian)?
The TGI was 29.9 µM.

And the GI50 (OVCAR-4 ovarian)?
The GI50 was 14.4 µM.

What about the TGI (OVCAR-4 ovarian) of the same compound?
Its TGI is 29 µM.

And the GI50 (OVCAR-5 ovarian)?
The GI50 was 14.6 µM.

And the TGI (OVCAR-5 ovarian)?
Its TGI is 27.8 µM.

What about the GI50 (OVCAR-8 ovarian) of the same compound?
Its GI50 is 16.3 µM.

What about the TGI (OVCAR-8 ovarian) of the same compound?
Its TGI is 31.5 µM.

And the GI50 (PC-3 prostate)?
Its GI50 is 15.5 µM.

And the TGI (PC-3 prostate)?
The TGI was 31.7 µM.

And the GI50 (RPMI-8226 leukemia)?
The GI50 was 18.6 µM.

And the TGI (RPMI-8226 leukemia)?
Its TGI is 43.4 µM.

What about the GI50 (RXF 393 renal) of the same compound?
The GI50 was 10.8 µM.

And the TGI (RXF 393 renal)?
The TGI was 23.6 µM.

And the GI50 (SF-268 CNS)?
The GI50 was 15 µM.

And the TGI (SF-268 CNS)?
The TGI was 33.5 µM.

And the GI50 (SF-295 CNS)?
Its GI50 is 16.3 µM.

And the TGI (SF-295 CNS)?
Its TGI is 30.5 µM.

And the GI50 (SF-539 CNS)?
The GI50 was 14.7 µM.

What about the TGI (SF-539 CNS) of the same compound?
The TGI was 27.8 µM.

And the GI50 (SK-MEL-2 melanoma)?
Its GI50 is 15.9 µM.

What about the TGI (SK-MEL-2 melanoma) of the same compound?
The TGI was 30 µM.

And the GI50 (SK-MEL-28 melanoma)?
Its GI50 is 16.2 µM.

What about the TGI (SK-MEL-28 melanoma) of the same compound?
Its TGI is 29.9 µM.

What about the GI50 (SK-MEL-5 melanoma) of the same compound?
Its GI50 is 15.8 µM.

What about the TGI (SK-MEL-5 melanoma) of the same compound?
Its TGI is 29.2 µM.

And the GI50 (SK-OV-3 ovarian)?
Its GI50 is 14.3 µM.

And the TGI (SK-OV-3 ovarian)?
Its TGI is 27.7 µM.

And the GI50 (SN12C renal)?
Its GI50 is 13.5 µM.

And the TGI (SN12C renal)?
Its TGI is 26.7 µM.

What about the GI50 (SNB-19 CNS) of the same compound?
Its GI50 is 15.6 µM.

And the TGI (SNB-19 CNS)?
The TGI was 29.2 µM.

And the GI50 (SNB-75 CNS)?
The GI50 was 10.4 µM.

What about the TGI (SNB-75 CNS) of the same compound?
The TGI was 24.7 µM.

What about the GI50 (SR leukemia) of the same compound?
The GI50 was 13.7 µM.

What about the TGI (SR leukemia) of the same compound?
The TGI was 29.7 µM.

And the GI50 (SW-620 colon)?
Its GI50 is 12.3 µM.

What about the TGI (SW-620 colon) of the same compound?
Its TGI is 25.3 µM.

And the GI50 (T-47D breast)?
The GI50 was 14.6 µM.

What about the TGI (T-47D breast) of the same compound?
Its TGI is 30 µM.

And the GI50 (TK-10 renal)?
Its GI50 is 14 µM.

And the TGI (TK-10 renal)?
Its TGI is 27.3 µM.

And the GI50 (U251 CNS)?
Its GI50 is 15.3 µM.

And the TGI (U251 CNS)?
Its TGI is 29.3 µM.

And the GI50 (UACC-257 melanoma)?
The GI50 was 15.7 µM.

What about the TGI (UACC-257 melanoma) of the same compound?
Its TGI is 30.6 µM.

What about the GI50 (UACC-62 melanoma) of the same compound?
Its GI50 is 15.1 µM.

What about the TGI (UACC-62 melanoma) of the same compound?
Its TGI is 28.7 µM.

What about the GI50 (UO-31 renal) of the same compound?
Its GI50 is 12.8 µM.

What about the TGI (UO-31 renal) of the same compound?
Its TGI is 25.5 µM.

— PubChem BioAssay (NCI)
